{
  "source": "patent US4138496A",
  "about": "“SY-1 substance” (Kaken Chemical Co., Ltd., priority 1977, dated 1979)",
  "key": {"[1]": {"system": "Piricularia oryzae", "test": "microbe, parasite or virus in culture", "assay_type": "cell-based", "settings": "read-out: Minimum inhibitory concentration"}, "[2]": {"system": "Alternaria kikuchiana", "test": "Minimum inhibitory concentration", "assay_type": "cell-based", "settings": "PS: potato-sucrose agar, Na salt"}, "[3]": {"test": "Stability", "settings": "Na salt"}, "[4]": {"test": "Solubility"}, "[5]": {"test": "Toxicity (LD50), mice, orally", "settings": "mouse, in vivo, po"}, "[6]": {"system": "Bacillus subtilis", "test": "Minimum inhibitory concentration", "settings": "read-out: Minimum inhibitory concentration"}, "[7]": {"system": "Bacillus circulans", "test": "Minimum inhibitory concentration", "settings": "Paenibacillus illinoisensis, read-out: Minimum inhibitory concentration"}, "[8]": {"system": "Bacillus megaterium", "test": "Minimum inhibitory concentration", "settings": "Priestia megaterium, read-out: Minimum inhibitory concentration"}, "[9]": {"system": "Staphylococcus aureus", "test": "Minimum inhibitory concentration", "settings": "read-out: Minimum inhibitory concentration"}, "[10]": {"system": "Staphylococcus epidermidis", "test": "Minimum inhibitory concentration", "settings": "read-out: Minimum inhibitory concentration"}, "[11]": {"system": "Micrococcus flavus", "test": "Minimum inhibitory concentration", "settings": "read-out: Minimum inhibitory concentration"}, "[12]": {"system": "Micrococcus luteus", "test": "Minimum inhibitory concentration", "settings": "read-out: Minimum inhibitory concentration"}, "[13]": {"system": "Mycobacterium smegmatis", "test": "Minimum inhibitory concentration", "settings": "Mycolicibacterium smegmatis, read-out: Minimum inhibitory concentration"}, "[14]": {"system": "Mycobacterium phlei", "test": "Minimum inhibitory concentration", "settings": "Mycolicibacterium phlei, read-out: Minimum inhibitory concentration"}, "[15]": {"system": "Mycobacterium avium", "test": "Minimum inhibitory concentration", "settings": "read-out: Minimum inhibitory concentration"}, "[16]": {"system": "Escherichia coli", "test": "Minimum inhibitory concentration", "settings": "read-out: Minimum inhibitory concentration"}, "[17]": {"system": "Klebsiella pneumoniae", "test": "Minimum inhibitory concentration", "settings": "read-out: Minimum inhibitory concentration"}, "[18]": {"system": "Proteus vulgaris", "test": "Minimum inhibitory concentration", "settings": "read-out: Minimum inhibitory concentration"}, "[19]": {"system": "Psendomonas aeruginosa", "test": "Minimum inhibitory concentration", "settings": "read-out: Minimum inhibitory concentration"}},
  "data": [
    {"compound": "CCC(C(=O)O)C1CCC(C)C(C(C)C(O)C(C)C(=O)C(CC)C2OC3(C=CCC4(CCC(C)(C5CCC(O)(CC)C(C)O5)O4)O3)C(C)CC2C)O1", "note": "(stereo not shown) [SY-1 substance]", "values": [
      {"measurement": "MIC", "setting": "[1]", "result": "> 100", "unit": "µg/mL"},
      {"measurement": "MIC", "setting": "[2]", "result": "> 100", "unit": "µg/mL"},
      {"measurement": "Stability", "setting": "[3]; pH 7-9", "result": "stable in pH 7-9"},
      {"measurement": "Stability", "setting": "[3]; pH lower than 6", "result": "unstable in pH lower than 6"},
      {"measurement": "Solubility in organic solvents", "setting": "[4]; alcohols, acetates, chloroform, ether, carbon tetrachloride, benzene and n-hexane, Na salt", "result": "soluble"},
      {"measurement": "Solubility in various organic solvents", "setting": "[4]; general statement for isolation by solvent extraction", "result": "soluble in various organic solvents"},
      {"measurement": "Solubility in water", "setting": "[4]; water, Na salt", "result": "insoluble in water"},
      {"measurement": "LD50", "setting": "[5]", "result": 51, "unit": "mg/kg"},
      {"measurement": "MIC", "setting": "[6]", "result": 100, "unit": "µg/mL"},
      {"measurement": "MIC", "setting": "[7]", "result": 12.5, "unit": "µg/mL"},
      {"measurement": "MIC", "setting": "[8]", "result": 50, "unit": "µg/mL"},
      {"measurement": "MIC", "setting": "[9]", "result": 100, "unit": "µg/mL"},
      {"measurement": "MIC", "setting": "[10]", "result": 50, "unit": "µg/mL"},
      {"measurement": "MIC", "setting": "[11]", "result": 100, "unit": "µg/mL"},
      {"measurement": "MIC", "setting": "[12]", "result": 100, "unit": "µg/mL"},
      {"measurement": "MIC", "setting": "[13]", "result": "> 100", "unit": "µg/mL"},
      {"measurement": "MIC", "setting": "[14]", "result": "> 100", "unit": "µg/mL"},
      {"measurement": "MIC", "setting": "[15]", "result": "> 100", "unit": "µg/mL"},
      {"measurement": "MIC", "setting": "[16]", "result": "> 100", "unit": "µg/mL"},
      {"measurement": "MIC", "setting": "[17]", "result": "> 100", "unit": "µg/mL"},
      {"measurement": "MIC", "setting": "[18]", "result": "> 100", "unit": "µg/mL"},
      {"measurement": "MIC", "setting": "[19]", "result": "> 100", "unit": "µg/mL"}
    ]}
  ]
}
